Common to all, as to format: physicochemical
A short description of data set [1]: Vacuum drying of the solid, form re-analyzed by XRD. As to conditions: for Solid form by XRD after drying: overnight at 40° C. under vacuum; for Solid form after vacuum drying: dried under vacuum, temperature and time not stated. On the procedure:
(§1) X-Ray powder diffraction data were obtained by using methods known in the art, using a SCINTAG powder X-Ray diffractometer model X'TRA equipped with a solid-state detector. A Copper radiation of 1.5418 Å was used. A round aluminum sample holder with zero background was used. The scanning parameters included: range: 20 to 40° 2θ; scan mode: continuous scan; step size: 0.05°. The rate for Form XX [FIG. 16] was 3°/min using spin mode while the remaining crystalline forms were 5°/min using spin mode. All peak positions are within ±0.2 degrees two theta.
Tigecycline sample was dissolved in 20 volumes of hot iso-propanol. The solution thus obtained was allowed to cool at ambient temperature and then further cooled at 0-5° C. for about half an hour. The resulted suspension was filtered and the solid air-dried on the filter to afford Tigecycline of Form XII. The material was further dried overnight at 40° C. under vacuum without affecting the polymorphs, i.e. the vacuum dried Tigecycline was still identified as Form XII. The sizes of the Tigecycline Form XII crystals were less than 300 μm.
Tigecycline sample was dissolved in 20 volumes of n-propanol or 40 volumes of hot ethanol. The solution thus obtained was allowed to cool at ambient temperature and then further cooled at 0-5° C. for about half an hour. The resulted suspension was filtered and the solid air-dried on the filter to afford Tigecycline Form XIII. The material was further dried overnight under vacuum at 40° C. without affecting the polymorphs, i.e. the vacuum dried Tigecycline was still identified as Form XIII. The sizes of the Tigecycline Form XIII crystals were less than 300 μm.
2 grams of Tigecycline was dissolved in 440 mL of DDW and pH of the mixture was adjusted at 7.38 and 60 mL of THF were then added. The resulted solution was extracted 6 times with 60 mL portions of dichloromethane while pH is carefully controlled at 7.2-7.4. The combined organic extract was then dried over sodium sulfate and concentrated to about 10 mL to afford a suspension of Tigecycline. The solid was filtered and washed with heptane. Analysis of the material indicated Form XVII Tigecycline.
2 grams of Tigecycline was dissolved in 440 mL of DDW and pH of the mixture was adjusted at 7.33 and 60 mL of THF were then added. The resulted solution was extracted 6 times with 60 mL portions of dichloromethane while the pH is carefully controlled at 7.2-7.4. The combined organic extract was then dried over sodium sulfate, filtered and the solid was washed with 50 mL of dichloromethane into the initial filtrate. The combined filtrate was concentrated to 30-40 mL and the concentrated was stirred for about half an hour at 0-5° C. A precipitation occurred upon the cooling and the solid was collected and vacuum dried. Analysis of the material before and after the drying indicated Form XVIII of Tigecycline in both cases.
A solution of Tigecycline in dichloromethane was provided between 5 and 10 g/L, and dried over sodium sulfate. Toluene was added to the solution so that the total volume increased to about 1.15 of the original volume. The resulted solution was then partially evaporated so that the volume of the residual mixture was similar to that of the toluene added. The resulted suspension was filtered and the solid thus obtained was dried under vacuum. Analysis of the material before and after the drying indicated Form XIX of Tigecycline in both cases.
A solution of Tigecycline in dichloromethane was provided and dried over sodium sulfate. Di-n-butyl ether was added to the solution so that the total volume increased to about 1.15 of the original volume. The resulting solution was then partially evaporated so that the volume of the residual mixture was similar to that of the di-n-butyl ether added. The resulted suspension was filtered and the cake washed with di-n-butyl ether. Tigecycline thus obtained was identified as Form VIII in both wet and vacuum dried samples. […]

Data set [2] can be described thus: Exposure to 0% or 100% relative humidity for 7 days at room temperature, crystal form monitored by XRD. On the procedure:
X-Ray powder diffraction data were obtained by using methods known in the art, using a SCINTAG powder X-Ray diffractometer model X'TRA equipped with a solid-state detector. A Copper radiation of 1.5418 Å was used. A round aluminum sample holder with zero background was used. The scanning parameters included: range: 20 to 40° 2θ; scan mode: continuous scan; step size: 0.05°. The rate for Form XX [FIG. 16] was 3°/min using spin mode while the remaining crystalline forms were 5°/min using spin mode. All peak positions are within ±0.2 degrees two theta. […]
Form I prepared from ethyl acetate (about 80 mg) as described in U.S. Application Ser. No. 60/796,800 was exposed to either 0% or 100% relative humidity for 7 days at room temperature. After the exposure the crystal form was monitored by XRD. […]

A short description of data set [3]: Polymorphic transition due to heating in oven, solid analyzed by XRD. On the procedure:
as §1
Tigecycline Form X was placed in oven at a temperature of between about 50-150° C. for about 0.5-2 hr (for example: 60 for 2 hr, 140° C. for 1 hr).
Tigecycline Form XI was placed in oven at a temperature of between about 50-80° C. for about 1-2 hr (for example: 60 for 2 hr).
Tigecycline Form XVII was placed in oven at a temperature of between about 50-70° C. for about 1-2 hr (for example: 60 for 2 hr).
Tigecycline Form XVII was placed in oven at a temperature of between about 90-110° C. for about 0.5-1 hr (for example: 100 for 0.5 hr).
Tigecycline Form XVIII was placed in oven at a temperature of between about 120-150° C. for about 0.5-1 hr (for example: 140 for 1 hr).
Tigecycline Form XXIV was placed in oven at a temperature of between about 110-140° C. for about 0.5-1 hr (for example: 120 for 0.5 hr, 140° C. for 1 hr).

Data set [4] is described as follows: Pressing by a laboratory press, solid analyzed by XRD. As to conditions: pressure of about 1-2 tons for about 1-3 min (e.g. 2 tons for 1 min). As to the method: as §1
Tigecycline Form XI was pressed by a laboratory press by pressure of about 1-2 tons for about 1-3 min (for example: 2 tons for 1 min).
Tigecycline Form XVII was pressed by a laboratory press by pressure of about 1-2 tons for about 1-3 min (for example: 2 tons for 1 min).

Data set [5] in a line: Strong grinding by mortar and pestle, solid analyzed by XRD. As to conditions: about 0.5-1 min. On the procedure:
as §1
Tigecycline Form XVII was strongly ground by mortal and pestle for about 0.5-1 min.

Where [6] appears, read: 120-150° C. for about 0.5-1 hr (e.g. 140° C. for 1 hr).

Here are results for 13 compounds from patent US8198469B2, “Crystalline forms of tigecycline and processes for preparation thereof” (Teva Pharmaceutical Industries Ltd., priority 2006, dated 2012).

The structures appear in SMILES notation.

In the case of `CN(C)c1cc(NC(=O)CNC(C)(C)C)c(O)c2c1C[C@H]1C[C@H]3[C@H](N(C)C)C(O)=C(C(N)=O)C(=O)[C@@]3(O)C(O)=C1C2=O` [Form XII, Tigecycline], the “Solid form by XRD after drying” value in data set [1] is listed as “Form XII”.

As to `CN(C)c1cc(NC(=O)CNC(C)(C)C)c(O)c2c1C[C@H]1C[C@H]3[C@H](N(C)C)C(O)=C(C(N)=O)C(=O)[C@@]3(O)C(O)=C1C2=O` [Form IX, Tigecycline], the “Crystal form by XRD after exposure to relative humidity” value (shortened to “Crystal form … to relative humidity”) in data set [2] (100% RH) was “Form XXII”.

Take `CN(C)c1cc(NC(=O)CNC(C)(C)C)c(O)c2c1C[C@H]1C[C@H]3[C@H](N(C)C)C(O)=C(C(N)=O)C(=O)[C@@]3(O)C(O)=C1C2=O` [Form X, Tigecycline]: the “Solid form by XRD after heating in oven” value in data set [3] (50-150° C. for about 0.5-2 hr (e.g. 60 for 2 hr, 140° C. for 1 hr)) is listed as “amorphous form”.

Consider `CN(C)c1cc(NC(=O)CNC(C)(C)C)c(O)c2c1C[C@H]1C[C@H]3[C@H](N(C)C)C(O)=C(C(N)=O)C(=O)[C@@]3(O)C(O)=C1C2=O` [Form XVIII, Tigecycline], for which the “Solid form after vacuum drying” value in data set [1] is “Form XVIII”. The “Solid form by XRD after heating in oven” value in data set [3] (setting [6]) was “amorphous form”.

`CN(C)c1cc(NC(=O)CNC(C)(C)C)c(O)c2c1C[C@H]1C[C@H]3[C@H](N(C)C)C(O)=C(C(N)=O)C(=O)[C@@]3(O)C(O)=C1C2=O` [Form XI, Tigecycline]: the “Solid form by XRD after pressing” value in data set [4] is “mixture of Form XI and Form VI”. For the same compound, the “Crystal form … to relative humidity” value in data set [2] (0% RH) was “mixture of Form XI and Form VI”. Moreover, the “Solid form by XRD after heating in oven” value in data set [3] (50-80° C. for about 1-2 hr (e.g. 60 for 2 hr)) was “mixture of Form XI and Form VI”.

Take `CN(C)c1cc(NC(=O)CNC(C)(C)C)c(O)c2c1C[C@H]1C[C@H]3[C@H](N(C)C)C(O)=C(C(N)=O)C(=O)[C@@]3(O)C(O)=C1C2=O` [Form XIII, Tigecycline]: the “Solid form by XRD after drying” value in data set [1] is recorded as “Form XIII”.

With `CN(C)c1cc(NC(=O)CNC(C)(C)C)c(O)c2c1C[C@H]1C[C@H]3[C@H](N(C)C)C(O)=C(C(N)=O)C(=O)[C@@]3(O)C(O)=C1C2=O` [Form VIII, Tigecycline], the “Solid form after vacuum drying” value in data set [1] was “Form VIII”.

`CN(C)c1cc(NC(=O)CNC(C)(C)C)c(O)c2c1C[C@H]1C[C@H]3[C@H](N(C)C)C(O)=C(C(N)=O)C(=O)[C@@]3(O)C(O)=C1C2=O` [Form XXIV, Tigecycline]: the “Solid form by XRD after heating in oven” value in data set [3] (110-140° C. for about 0.5-1 hr (e.g. 120 for 0.5 hr, 140° C. for 1 hr)) was “amorphous form”.

For the compound `CN(C)c1cc(NC(=O)CNC(C)(C)C)c(O)c2c1C[C@H]1C[C@H]3[C@H](N(C)C)C(O)=C(C(N)=O)C(=O)[C@@]3(O)C(O)=C1C2=O` [amorphous Tigecycline, Tigecycline], in data set [1], the “Solid form by XRD after drying” value is “amorphous”.

On to `CN(C)c1cc(NC(=O)CNC(C)(C)C)c(O)c2c1C[C@H]1C[C@H]3[C@H](N(C)C)C(O)=C(C(N)=O)C(=O)[C@@]3(O)C(O)=C1C2=O` [Form I, Tigecycline], for which the “Crystal form … to relative humidity” value was “New form XXV” in data set [2] (0% RH) and “Amorphous” in data set [2] (100% RH). The “Solid form by XRD after heating in oven” value in data set [3] (setting [6]) is listed as “amorphous form”.

In the case of `CN(C)c1cc(NC(=O)CNC(C)(C)C)c(O)c2c1C[C@H]1C[C@H]3[C@H](N(C)C)C(O)=C(C(N)=O)C(=O)[C@@]3(O)C(O)=C1C2=O` [Form VII, Tigecycline], in data set [2] (0% RH), the “Crystal form … to relative humidity” value is given as “Form XXIII”.

Turning to `CN(C)c1cc(NC(=O)CNC(C)(C)C)c(O)c2c1C[C@H]1C[C@H]3[C@H](N(C)C)C(O)=C(C(N)=O)C(=O)[C@@]3(O)C(O)=C1C2=O` [Form XIX, Tigecycline], in data set [1], the “Solid form after vacuum drying” value is on record as “Form XIX”.

Consider `CN(C)c1cc(NC(=O)CNC(C)(C)C)c(O)c2c1C[C@H]1C[C@H]3[C@H](N(C)C)C(O)=C(C(N)=O)C(=O)[C@@]3(O)C(O)=C1C2=O` [Form XVII, Tigecycline], for which, in data set [4], the “Solid form by XRD after pressing” value is “mixture of Form XVII and Form VI”. In data set [5], the “Solid form by XRD after strong grinding” value is “mixture of Form XVII and Form VI”. Also, the “Solid form after vacuum drying” value in data set [1] is “Form XVII”. In addition, the “Solid form by XRD after heating in oven” value in data set [3] (50-70° C. for about 1-2 hr (e.g. 60 for 2 hr)) is “mixture of Form XVII and Form VI”; in data set [3] (90-110° C. for about 0.5-1 hr (e.g. 100 for 0.5 hr)), “Form VI”.
